What was measured:
hTG1 = target: T1, hTG1 (Homo sapiens, UniProt P22735); assay: Colorimetric transamidase activity assay, isozyme selectivity; format: biochemical; settings: normalized [I]/α
T1 sequence (P22735 1-817): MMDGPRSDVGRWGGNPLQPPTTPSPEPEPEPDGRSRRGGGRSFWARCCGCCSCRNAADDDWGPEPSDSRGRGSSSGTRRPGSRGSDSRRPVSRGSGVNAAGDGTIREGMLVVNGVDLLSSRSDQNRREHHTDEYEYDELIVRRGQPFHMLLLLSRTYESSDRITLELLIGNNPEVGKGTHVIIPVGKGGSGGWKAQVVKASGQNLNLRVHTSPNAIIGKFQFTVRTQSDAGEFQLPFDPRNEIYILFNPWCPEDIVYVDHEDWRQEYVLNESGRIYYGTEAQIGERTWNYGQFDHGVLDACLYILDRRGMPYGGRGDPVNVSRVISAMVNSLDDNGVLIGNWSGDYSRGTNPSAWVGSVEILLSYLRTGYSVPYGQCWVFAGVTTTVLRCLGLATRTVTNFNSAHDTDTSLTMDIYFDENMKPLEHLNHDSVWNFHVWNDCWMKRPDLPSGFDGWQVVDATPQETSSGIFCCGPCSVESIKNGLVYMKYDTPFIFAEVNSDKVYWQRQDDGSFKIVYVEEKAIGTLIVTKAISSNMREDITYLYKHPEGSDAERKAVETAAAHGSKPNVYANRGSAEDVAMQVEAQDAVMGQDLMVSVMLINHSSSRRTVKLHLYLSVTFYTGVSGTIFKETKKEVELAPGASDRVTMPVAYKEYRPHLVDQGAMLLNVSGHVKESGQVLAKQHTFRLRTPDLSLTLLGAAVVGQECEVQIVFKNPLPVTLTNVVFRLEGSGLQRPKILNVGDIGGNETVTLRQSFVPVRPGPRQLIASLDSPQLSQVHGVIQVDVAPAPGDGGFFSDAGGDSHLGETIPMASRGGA
Procedure: (§1) Colorimetric transamidase activity assay. The activities of hTG1, hTG2 and hTG6 were measured via a colorimetric assay using the chromogenic substrate Cbz-Glu(γ-p-nitrophenyl ester)Gly (AL5), as described (Leblanc, A. et al., “Kinetic studies of guinea pig liver transglutaminase reveal a general-base-catalyzed deacylation mechanism.” Biochemistry 2001, 40 (28), 8335-8342). Assays were conducted at 25° C. in 50 mM MOPS buffer (pH 6.95) containing 7.5 mM CaCl2. […] Stock solutions of the inhibitors were made in water ranging in concentration from 100-500 μM. The reaction was initiated with the addition of enzyme, 0.10 μM hTG1, 0.25 μM hTG2 (4.6 mU/mL) or 0.32 μM hTG6. Formation of hydrolysis product, p-nitrophenolate (pNP), was monitored at 405 nm in a polystyrene 96-well microplate using a BioTek Synergy 4 plate reader. The observed first-order rate constants of inactivation (kobs) were determined via non-linear regression fit to a mono-exponential model (Eqn 1) of absorbance versus time curves. These rate constants (kobs) were in turn fit to a saturation kinetics model (Eqn 2), by non-linear regression, providing the kinetic parameters kinact and KI, as previously described by Stone and Hofsteenge (Stone, S. R. and Hofsteenge, J., “Specificity of activated human protein C.” Biochem. J. 1985, 230 (2), 497-502). […] Experiments were completed in triplicate at minimum.

hTG6 = target: T2, hTG6 (Homo sapiens, UniProt O95932); assay: as above; format: biochemical; settings: normalized [I]/α
T2 sequence (O95932 1-706): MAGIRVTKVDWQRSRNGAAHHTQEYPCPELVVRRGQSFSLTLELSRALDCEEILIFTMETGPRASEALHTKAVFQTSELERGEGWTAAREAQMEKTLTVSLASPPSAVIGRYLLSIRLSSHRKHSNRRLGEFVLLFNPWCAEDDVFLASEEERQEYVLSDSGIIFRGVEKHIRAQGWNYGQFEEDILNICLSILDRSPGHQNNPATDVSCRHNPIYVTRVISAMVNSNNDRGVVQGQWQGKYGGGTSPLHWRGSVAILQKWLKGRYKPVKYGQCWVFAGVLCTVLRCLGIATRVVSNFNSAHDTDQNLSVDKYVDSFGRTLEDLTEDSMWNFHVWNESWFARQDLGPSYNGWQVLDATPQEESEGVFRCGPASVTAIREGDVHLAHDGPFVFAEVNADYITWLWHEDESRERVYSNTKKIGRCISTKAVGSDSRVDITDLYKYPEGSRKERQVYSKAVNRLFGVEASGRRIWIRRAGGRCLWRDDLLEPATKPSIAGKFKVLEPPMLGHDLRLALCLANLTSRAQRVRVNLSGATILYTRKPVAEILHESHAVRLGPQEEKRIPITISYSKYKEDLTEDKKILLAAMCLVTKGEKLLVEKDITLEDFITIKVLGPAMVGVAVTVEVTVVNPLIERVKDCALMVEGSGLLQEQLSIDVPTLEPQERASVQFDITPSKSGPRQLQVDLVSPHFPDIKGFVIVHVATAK
Procedure: as §1

SMILES | inhibition of TG1 (hTG1) | inhibition of TG6 (hTG6)
C=CC(=O)NCCCC[C@H](NC(=O)OCc1ccccc1)C(=O)N1CCN(C(=O)c2cccc3ccccc23)CC1 [AA9, reference compound] | none of these inhibitors showed any detectable inhibition | none of these inhibitors showed any detectable inhibition
C=CC(=O)NCCCC[C@H](NC(=O)Cc1ccccc1F)C(=O)N1CCN(C(=O)c2cccc3ccccc23)CC1 [Inhibitor 72, (S)-N-(6-(4-(1-naphthoyl)piperazin-1-yl)-5-(2-(2-fluorophenyl)acetamido)-6-oxohexyl)acrylamide] | none of these inhibitors showed any detectable inhibition | none of these inhibitors showed any detectable inhibition
C=CC(=O)NCCCC[C@H](NC(=O)Cc1ccccc1C)C(=O)N1CCN(C(=O)c2cccc3ccccc23)CC1 [Inhibitor 74, (S)-N-(6-(4-(1-naphthoyl)piperazin-1-yl)-5-(2-(2-methylphenyl)acetamido)-6-oxohexyl)acrylamide] | none of these inhibitors showed any detectable inhibition | none of these inhibitors showed any detectable inhibition
